Assay results published in article PMC4979471 (Cell Death Discovery, 2015).
Read-outs that look alike come from different tables or passages of the source.

Experiments:
Assay in all cases: Kinase selectivity, P33-radiolabeled assay
Assay type in all cases: biochemical
Conditions in all cases: 10 μM ATP
BRSK2 = target: T1, BRSK2 (Homo sapiens, UniProt Q8IWQ3)
T1 construct: purchased Reaction Biology Corp
T1 sequence (Q8IWQ3 1-736): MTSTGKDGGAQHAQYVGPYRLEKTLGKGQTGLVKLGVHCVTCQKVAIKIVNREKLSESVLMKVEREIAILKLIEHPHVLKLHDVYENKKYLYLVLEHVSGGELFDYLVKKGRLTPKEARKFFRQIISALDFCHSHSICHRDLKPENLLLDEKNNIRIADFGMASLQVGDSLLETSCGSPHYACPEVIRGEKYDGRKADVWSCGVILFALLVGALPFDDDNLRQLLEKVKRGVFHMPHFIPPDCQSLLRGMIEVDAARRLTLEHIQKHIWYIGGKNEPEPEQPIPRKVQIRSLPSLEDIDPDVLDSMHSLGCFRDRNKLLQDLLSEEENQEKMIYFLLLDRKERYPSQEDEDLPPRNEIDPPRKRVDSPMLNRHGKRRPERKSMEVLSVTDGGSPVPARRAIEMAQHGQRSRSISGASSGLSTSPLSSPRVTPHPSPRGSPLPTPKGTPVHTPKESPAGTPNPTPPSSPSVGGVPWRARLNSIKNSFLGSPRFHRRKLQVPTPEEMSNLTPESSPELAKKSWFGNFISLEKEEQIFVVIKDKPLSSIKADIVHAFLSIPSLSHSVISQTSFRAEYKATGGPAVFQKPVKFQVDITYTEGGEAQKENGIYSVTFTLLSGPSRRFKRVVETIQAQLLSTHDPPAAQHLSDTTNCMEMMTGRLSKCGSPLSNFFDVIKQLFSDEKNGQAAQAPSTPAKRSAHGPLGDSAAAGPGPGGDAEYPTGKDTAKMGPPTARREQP
Method in brief: (§1)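 Each enzyme was exposed to 10 μM compound, with duplicate measurements, in reactions containing 10 μM ATP. Numbers are remaining activity as a percent of the vehicle (DMSO) signal.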

CAMK2d = target: T2, CAMK2d (Homo sapiens, UniProt Q13557)
T2 construct: purchased Reaction Biology Corp
T2 sequence (Q13557 whole entry): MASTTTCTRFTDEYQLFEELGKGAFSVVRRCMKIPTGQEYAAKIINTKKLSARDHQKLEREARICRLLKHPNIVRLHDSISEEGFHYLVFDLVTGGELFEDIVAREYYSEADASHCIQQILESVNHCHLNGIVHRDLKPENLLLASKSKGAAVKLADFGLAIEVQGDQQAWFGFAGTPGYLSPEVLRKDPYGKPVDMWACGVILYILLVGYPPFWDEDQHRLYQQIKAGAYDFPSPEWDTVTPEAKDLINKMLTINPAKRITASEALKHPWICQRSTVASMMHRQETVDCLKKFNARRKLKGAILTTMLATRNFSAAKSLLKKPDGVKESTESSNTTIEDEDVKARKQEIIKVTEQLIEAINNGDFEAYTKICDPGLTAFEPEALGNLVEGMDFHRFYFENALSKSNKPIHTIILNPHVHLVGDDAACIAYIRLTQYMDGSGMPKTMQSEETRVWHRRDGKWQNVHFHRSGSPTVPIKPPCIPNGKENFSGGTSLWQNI
Method in brief: as §1

CSK = target: T3, CSK (Homo sapiens, UniProt P41240)
T3 construct: purchased Reaction Biology Corp
T3 sequence (P41240 whole entry): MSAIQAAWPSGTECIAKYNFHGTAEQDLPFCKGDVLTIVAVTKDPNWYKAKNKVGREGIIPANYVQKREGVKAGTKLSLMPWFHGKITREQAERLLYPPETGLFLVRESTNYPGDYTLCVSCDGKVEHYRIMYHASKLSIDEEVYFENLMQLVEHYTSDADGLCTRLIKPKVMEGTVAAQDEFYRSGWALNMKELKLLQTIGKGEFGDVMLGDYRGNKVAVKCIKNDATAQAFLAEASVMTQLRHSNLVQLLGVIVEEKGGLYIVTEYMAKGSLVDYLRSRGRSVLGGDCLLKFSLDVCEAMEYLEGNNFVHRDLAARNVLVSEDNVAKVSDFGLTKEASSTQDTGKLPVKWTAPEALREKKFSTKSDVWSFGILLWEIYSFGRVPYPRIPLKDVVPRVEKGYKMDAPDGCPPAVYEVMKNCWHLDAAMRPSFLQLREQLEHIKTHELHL
Method in brief: as §1

CK1g2 = target: T4, CK1g2 (Homo sapiens, UniProt P78368)
T4 construct: purchased Reaction Biology Corp
T4 sequence (P78368 whole entry): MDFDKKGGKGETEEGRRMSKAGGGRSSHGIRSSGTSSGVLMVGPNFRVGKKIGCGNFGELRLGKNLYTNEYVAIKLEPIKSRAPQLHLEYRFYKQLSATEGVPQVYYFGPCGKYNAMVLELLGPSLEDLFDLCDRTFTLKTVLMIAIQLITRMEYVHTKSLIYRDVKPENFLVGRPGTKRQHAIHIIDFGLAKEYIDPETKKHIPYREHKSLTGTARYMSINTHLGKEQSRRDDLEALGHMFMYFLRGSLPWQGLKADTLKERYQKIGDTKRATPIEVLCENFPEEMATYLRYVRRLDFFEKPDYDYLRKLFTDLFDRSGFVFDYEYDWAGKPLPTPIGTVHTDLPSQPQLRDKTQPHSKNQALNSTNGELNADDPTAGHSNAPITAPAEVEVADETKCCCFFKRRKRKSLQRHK
Method in brief: as §1

LATS1 = target: T5, LATS1 (Homo sapiens, UniProt O95835)
T5 construct: purchased Reaction Biology Corp
T5 sequence (O95835 1-1130): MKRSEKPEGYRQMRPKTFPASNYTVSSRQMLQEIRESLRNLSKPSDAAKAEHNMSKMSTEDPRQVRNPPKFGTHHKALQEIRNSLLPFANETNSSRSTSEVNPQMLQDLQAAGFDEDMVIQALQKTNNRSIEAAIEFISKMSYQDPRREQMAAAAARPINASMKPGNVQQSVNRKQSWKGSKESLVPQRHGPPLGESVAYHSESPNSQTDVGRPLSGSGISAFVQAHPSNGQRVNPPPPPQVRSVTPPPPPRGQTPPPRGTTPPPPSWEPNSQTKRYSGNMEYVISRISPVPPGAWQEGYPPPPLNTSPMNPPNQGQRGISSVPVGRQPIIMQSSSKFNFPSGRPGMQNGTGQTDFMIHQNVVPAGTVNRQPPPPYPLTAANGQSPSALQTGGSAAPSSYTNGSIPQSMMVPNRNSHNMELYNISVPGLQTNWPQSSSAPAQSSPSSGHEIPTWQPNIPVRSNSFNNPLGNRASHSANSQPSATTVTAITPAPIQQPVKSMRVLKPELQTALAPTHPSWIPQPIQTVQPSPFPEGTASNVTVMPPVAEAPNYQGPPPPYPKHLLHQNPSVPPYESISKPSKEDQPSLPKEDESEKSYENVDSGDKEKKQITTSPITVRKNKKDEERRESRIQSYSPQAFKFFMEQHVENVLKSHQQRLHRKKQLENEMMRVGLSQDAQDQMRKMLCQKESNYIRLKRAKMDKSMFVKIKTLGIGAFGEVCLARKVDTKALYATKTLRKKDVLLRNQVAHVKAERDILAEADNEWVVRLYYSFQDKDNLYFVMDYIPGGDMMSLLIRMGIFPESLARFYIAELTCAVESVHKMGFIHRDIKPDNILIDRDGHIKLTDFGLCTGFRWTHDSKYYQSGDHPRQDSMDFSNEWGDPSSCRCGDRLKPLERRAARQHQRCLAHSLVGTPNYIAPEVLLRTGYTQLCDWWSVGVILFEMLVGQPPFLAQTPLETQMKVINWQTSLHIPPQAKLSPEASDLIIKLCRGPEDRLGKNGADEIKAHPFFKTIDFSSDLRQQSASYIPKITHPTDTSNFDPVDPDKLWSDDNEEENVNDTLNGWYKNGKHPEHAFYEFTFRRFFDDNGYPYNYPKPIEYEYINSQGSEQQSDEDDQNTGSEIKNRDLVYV
Method in brief: as §1

LYN B = target: T6, LYN B (Homo sapiens, UniProt P07948)
T6 construct: purchased Reaction Biology Corp
T6 sequence (P07948 1-491 isoform P07948-2): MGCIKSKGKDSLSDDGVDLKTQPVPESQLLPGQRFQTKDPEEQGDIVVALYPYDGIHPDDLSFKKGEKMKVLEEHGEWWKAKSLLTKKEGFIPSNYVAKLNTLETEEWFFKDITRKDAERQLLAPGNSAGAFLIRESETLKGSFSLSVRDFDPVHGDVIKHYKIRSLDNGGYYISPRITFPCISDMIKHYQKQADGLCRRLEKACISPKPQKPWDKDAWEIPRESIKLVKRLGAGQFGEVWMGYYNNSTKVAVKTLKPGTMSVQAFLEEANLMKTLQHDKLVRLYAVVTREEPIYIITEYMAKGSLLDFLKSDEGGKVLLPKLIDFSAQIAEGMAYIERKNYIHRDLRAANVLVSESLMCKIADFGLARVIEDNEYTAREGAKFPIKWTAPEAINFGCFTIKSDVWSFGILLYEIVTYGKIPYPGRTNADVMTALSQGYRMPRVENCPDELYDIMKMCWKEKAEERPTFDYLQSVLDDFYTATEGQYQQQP
Method in brief: as §1

MSK1/RPS6KA5 = target: T7, MSK1/RPS6KA5 (Homo sapiens, UniProt O75582)
T7 construct: purchased Reaction Biology Corp
T7 sequence (O75582 whole entry): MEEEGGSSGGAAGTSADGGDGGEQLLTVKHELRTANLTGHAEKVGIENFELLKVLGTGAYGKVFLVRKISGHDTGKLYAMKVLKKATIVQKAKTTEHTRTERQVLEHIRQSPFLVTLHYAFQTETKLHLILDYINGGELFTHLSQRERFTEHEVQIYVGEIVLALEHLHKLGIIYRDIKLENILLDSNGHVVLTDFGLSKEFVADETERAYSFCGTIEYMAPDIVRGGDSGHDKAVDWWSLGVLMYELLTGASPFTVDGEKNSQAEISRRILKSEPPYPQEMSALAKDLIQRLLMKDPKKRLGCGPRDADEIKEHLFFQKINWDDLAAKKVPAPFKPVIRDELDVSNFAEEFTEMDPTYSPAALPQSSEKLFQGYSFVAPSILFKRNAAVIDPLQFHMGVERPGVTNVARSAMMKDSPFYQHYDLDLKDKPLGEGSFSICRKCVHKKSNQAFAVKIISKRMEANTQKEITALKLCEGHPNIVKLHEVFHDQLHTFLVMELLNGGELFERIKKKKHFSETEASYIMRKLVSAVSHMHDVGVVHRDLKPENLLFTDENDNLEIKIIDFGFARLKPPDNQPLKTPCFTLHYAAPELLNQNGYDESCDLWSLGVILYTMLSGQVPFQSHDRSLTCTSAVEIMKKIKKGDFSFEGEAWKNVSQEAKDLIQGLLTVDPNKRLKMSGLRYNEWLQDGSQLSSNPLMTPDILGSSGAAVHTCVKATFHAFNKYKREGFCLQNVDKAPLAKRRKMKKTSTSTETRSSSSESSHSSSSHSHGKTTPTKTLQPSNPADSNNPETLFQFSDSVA
Method in brief: as §1

CK1epsilon = target: T8, CK1epsilon (Homo sapiens, UniProt P49674)
T8 construct: purchased Reaction Biology Corp
T8 sequence (P49674 whole entry): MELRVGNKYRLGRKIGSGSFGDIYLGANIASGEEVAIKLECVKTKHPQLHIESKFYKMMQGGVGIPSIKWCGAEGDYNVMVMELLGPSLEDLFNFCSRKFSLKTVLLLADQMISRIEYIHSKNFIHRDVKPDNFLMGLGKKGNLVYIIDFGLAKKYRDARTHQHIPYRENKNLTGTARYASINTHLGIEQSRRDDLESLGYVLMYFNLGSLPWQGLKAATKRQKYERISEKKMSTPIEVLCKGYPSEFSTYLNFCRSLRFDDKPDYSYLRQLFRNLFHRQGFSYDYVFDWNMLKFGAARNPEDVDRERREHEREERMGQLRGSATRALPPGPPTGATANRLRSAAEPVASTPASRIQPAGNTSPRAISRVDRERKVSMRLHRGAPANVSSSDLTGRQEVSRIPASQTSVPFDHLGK
Method in brief: as §1

[1] = read-out: % Enzyme Activity (relative to DMSO controls) AVG
[2] = read-out: % Enzyme Activity (relative to DMSO controls) Data 1
[3] = read-out: % Enzyme Activity (relative to DMSO controls) Data 2

## CC(C)(C)C(=O)N1N=CC[C@H]1c1ccccc1 [GSK′963]
BRSK2; [1]
  remaining activity at 10 µM: 104%
BRSK2; [2]
  remaining activity at 10 µM: 109%
BRSK2; [3]
  remaining activity at 10 µM: 98.7%
CAMK2d; [1]
  remaining activity at 10 µM: 108%
CAMK2d; [2]
  remaining activity at 10 µM: 109%
CAMK2d; [3]
  remaining activity at 10 µM: 108%
CSK; [1]
  remaining activity at 10 µM: 104%
CSK; [2]
  remaining activity at 10 µM: 104%
CSK; [3]
  remaining activity at 10 µM: 103%
CK1g2; [1]
  remaining activity at 10 µM: 112%
CK1g2; [2]
  remaining activity at 10 µM: 112%
CK1g2; [3]
  remaining activity at 10 µM: 111%
LATS1; [1]
  remaining activity at 10 µM: 103%
LATS1; [2]
  remaining activity at 10 µM: 103%
LATS1; [3]
  remaining activity at 10 µM: 102%
LYN B; [1]
  remaining activity at 10 µM: 99.7%
LYN B; [2]
  remaining activity at 10 µM: 103%
LYN B; [3]
  remaining activity at 10 µM: 96%
MSK1/RPS6KA5; [1]
  remaining activity at 10 µM: 108%
MSK1/RPS6KA5; [2]
  remaining activity at 10 µM: 108%
MSK1/RPS6KA5; [3]
  remaining activity at 10 µM: 108%
CK1epsilon; [1]
  remaining activity at 10 µM: 93.4%
CK1epsilon; [2]
  remaining activity at 10 µM: 96.7%
CK1epsilon; [3]
  remaining activity at 10 µM: 90.2%
